Values of other authors in patent publication US20230144779A1, “FORMULATIONS AND METHOD FOR TREATMENT OF INFLAMMATORY DISEASES” (VYOME THERAPEUTICS INC., priority 2019, published 2023).

## COc1c(C)c2c(c(O)c1C/C=C(\C)CCC(=O)O)C(=O)OC2 [Mycophenolic acid (MPA), Mycophenolic acid]
  solubility: Practical insoluble, 63 mcg/ml. MPA as such is not available in the market, it is available as salt form Hydrophilic nature as compared to its ester prodrug
